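In this assay, cells in 96-well plates receive the compound at five concentrations for 48 hours. Endpoints are linearly interpolated between the surrounding concentrations. The concentration for 50% growth inhibition is given as GI50.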 The source made the active and inactive calls. No stated cut-off is given here; in the data, active = GI50 up to about 1.1 µM and inactive = higher.
Experiments:
Experiment in all cases: growth of human tumour cells (NCI), 48 h
RPMI-8226 = tested on: RPMI-8226
HT-29 = tested on: HT-29
SW-620 = tested on: SW-620
EKVX = tested on: EKVX
SF-268 = tested on: SF-268
M14 = tested on: M14
SNB-19 = tested on: SNB-19
SF-295 = tested on: SF-295
U-251 = tested on: U-251
HCT-116 = tested on: HCT-116
OVCAR-5 = tested on: OVCAR-5
OVCAR-8 = tested on: OVCAR-8
UACC-62 = tested on: UACC-62
SN12C = tested on: SN12C
UACC-257 = tested on: UACC-257
KM12 = tested on: KM12
LOX IMVI = tested on: LOX IMVI
HOP-92 = tested on: HOP-92
NCI-H522 = tested on: NCI-H522

Measured: GI50

CC1(C)CC2(C)CC1CC2O (centres undefined)
inactive: RPMI-8226 > 100 µM | HT-29 > 100 µM | SW-620 > 100 µM | EKVX > 100 µM | SF-268 > 100 µM | M14 > 100 µM | SNB-19 > 100 µM | SF-295 > 100 µM | U-251 > 100 µM | HCT-116 > 100 µM | OVCAR-5 > 100 µM | OVCAR-8 > 100 µM | UACC-62 > 100 µM | SN12C > 100 µM | UACC-257 > 100 µM | KM12 > 100 µM | LOX IMVI > 100 µM

O=c1o[nH]/c(=N/c2ccccc2)n1-c1ccccc1
inactive: HT-29 > 100 µM | SW-620 > 100 µM | EKVX > 100 µM | M14 > 100 µM | SNB-19 > 100 µM | SF-295 > 100 µM | U-251 > 100 µM | HCT-116 > 100 µM | OVCAR-5 > 100 µM | HOP-92 > 100 µM | OVCAR-8 > 100 µM | UACC-62 > 100 µM | SN12C > 100 µM | UACC-257 > 100 µM | KM12 > 100 µM | LOX IMVI > 100 µM

CN1CC=C(c2c(N)nc(N)[nH]c2=O)CC1
inactive: RPMI-8226 > 100 µM | HT-29 > 100 µM | SW-620 > 100 µM | EKVX > 100 µM | SF-268 > 100 µM | M14 > 100 µM | SNB-19 > 100 µM | SF-295 > 100 µM | U-251 > 100 µM | HCT-116 > 100 µM | OVCAR-5 > 100 µM | NCI-H522 > 100 µM | HOP-92 > 100 µM | OVCAR-8 > 100 µM | UACC-62 > 100 µM | SN12C > 100 µM | UACC-257 > 100 µM | KM12 > 100 µM

Cc1ccc(S(=O)(=O)NNC(=O)Nc2cccc(C(F)(F)F)c2)cc1
inactive: RPMI-8226 > 100 µM | HT-29 > 100 µM | SW-620 > 100 µM | EKVX > 100 µM | SF-268 > 100 µM | M14 > 100 µM | SNB-19 > 100 µM | SF-295 > 100 µM | U-251 96.8 µM | HCT-116 97.1 µM | OVCAR-5 > 100 µM | NCI-H522 38.4 µM | HOP-92 > 100 µM | OVCAR-8 > 100 µM | UACC-62 > 100 µM | SN12C > 100 µM | UACC-257 57.9 µM | KM12 57.3 µM

Reference: ChEMBL document CHEMBL1201862, “PubChem BioAssay data set” (2004)
